The test system of data set [1] is CaNT. As to the kind of experiment: Cytometric distribution of cell nuclei from CaNT tumors treated in mice. It counts as functional, cell-based. The note with it: Mus musculus.
The test system of data set [2] is CaNT. As to the kind of experiment: Cytometric distribution of cell nuclei from CaNT tumors treated in mice with breathing air. It counts as functional, cell-based. As to conditions: Mus musculus.
The subject of data set [3] is CaNT. In words: Cytometric distribution of cell nuclei from CaNT tumors treated in mice with breathing carbogen. As to conditions: Mus musculus. The format is functional, cell-based.
In data set [4] the test system is CaNT. As to the kind of experiment: Cytometric distribution of single cells from CaNT tumors treated in mice. The format is functional, cell-based. As to conditions: Mus musculus.
In data set [5] the test system is CaNT. In words: Cytometric distribution of single cells from CaNT tumors treated in mice with breathing air. The format is functional, cell-based. As to conditions: Mus musculus.
Data set [6] concerns CaNT. In words: Cytometric distribution of single cells from CaNT tumors treated in mice with breathing carbogen. It counts as functional, cell-based. As to conditions: Mus musculus.
Data set [7] in a line: Half life evaluated in plasma in vitro at 20 degree Centigrade. The format is ADME, cell-free.

For the compound `O=C1N[C@H]2[C@H](CS[C@H]2CCCCCn2ccnc2[N+](=O)[O-])N1`, the Distribution was found to be 0.85% with CaNT [1]; 11.7% in the data set on CaNT [2]; 0.69% in the data set with CaNT [3]; 1.2% in the data set on CaNT [4]; 16.5% in the data set with CaNT [5]; 3.4% in the data set on CaNT [6].
In the case of `O=C(CCCC[C@@H]1SC[C@@H]2NC(=O)N[C@@H]21)NCCNC(=O)Cn1ccnc1[N+](=O)[O-]`, the half-life in data set [7] was 2 h.

(Values after ChEMBL document CHEMBL1127291, “Bioreductive markers for hypoxic cells: 2-nitroimidazoles with biotinylated 1-substituents” (J Med Chem, 1994).)
